Data from BindingDB's records for doi:10.1016/s0960-894x(99)00680-0 (Univ. De Valencia, 2000).

Key:
[1] = Inhibition of secretory PLA2 activity in Naja naja venom enzyme using [3H]oleate labelled membranes at a concentration of 10 uM
[2] = molecular target: Phospholipase A2, major isoenzyme, pancreatic (Sus scrofa) (UniProt P00592); experiment: Inhibition of secretory PLA2 activity in porcine pancreas using [3H]-oleate labelled membranes at a concentration of 10 uM
[3] = Inhibition of secretory PLA2 activity in bee venom enzyme using [3H]oleate labelled membranes at a concentration of 10 uM

Phospholipase A2, major isoenzyme, pancreatic (Sus scrofa), sequence (P00592 whole entry, looked up): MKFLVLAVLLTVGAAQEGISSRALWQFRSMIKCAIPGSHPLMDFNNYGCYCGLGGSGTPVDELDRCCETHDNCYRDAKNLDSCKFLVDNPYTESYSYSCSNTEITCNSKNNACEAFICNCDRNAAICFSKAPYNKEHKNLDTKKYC

| SMILES | IC50 [1] [µM] | IC50 [2] [µM] | IC50 [3] [µM] |
| --- | --- | --- | --- |
| CCCCCCCCCCCCCCC(N)CN(CC)CC (stereo not given) [N*1*,N*1*-Diethyl-hexadecane-1,2-diamine] | 9.5 | 3.6 | 11 |
| CCCCCCCCCCCCCCC(CO)NCC (stereo not given) [2-Ethylamino-hexadecan-1-ol] |  | 1.4 | 6.1 |
